Data published in PubChem BioAssay (NCI).
Several values for one entry are separate records, joined by “and”; a condition that tells them apart may be missing. Equal values may be shown once.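 Grown in 96-well plates, cells were treated for 48 hours with each compound at five concentrations. Insufficient inhibition: endpoint recorded as highest concentration tested. GI50 = concentration required for 50% inhibition of growth. TGI: concentration producing complete growth inhibition.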

Tested on: SF-539 CNS
Assay: NCI anticancer screen, dose series, 48 h

Compound	GI50 [µM]	TGI [µM]
O=C(NCCNCCO)c1ccc2c(c1)oc1cc3ccccc3c(=O)n12	16.2	33.2

Tested on: K-562 leukemia
Assay: NCI anticancer screen, dose series, 48 h

Compound	GI50	TGI [µM]
O=C1c2cccc(Oc3ccccc3)c2C(=O)c2cccc(Oc3ccccc3)c21	> 100000 nM	> 100
O=C(OCc1ccc2c(Br)cc(Br)c(O)c2n1)c1cc2ccccc2[nH]1	398 nM	> 40
CC(C)(CO)CNC(=O)c1ccc2[nH]c(O)c(N=Nc3ccc(S(N)(=O)=O)cc3)c2c1	> 25000 nM	> 25
Cc1cc(O)c2c(c1)C(=O)C=CC2=O	322 nM and 1250 nM	
CC1(C)N=C(N)N=C(N)N1c1ccc(CCC(=O)Nc2ccc(S(=O)(=O)F)cc2)cc1	533 nM	> 100
N#CC1(c2ccc(NC(=O)c3cccnc3NCc3ccncc3)cc2)CCCC1	5790 nM	> 51
CCN1C(=S)N(CC)C2C1NC(=S)N2/N=C/C=C/c1ccccc1OC (configuration not stated)	129 nM	> 72.1
Cn1nccc1Nc1nccc(-c2ccn([C@H](CO)c3ccc(Cl)c(F)c3)c(=O)c2)n1	22500 nM	> 100
N#Cc1nc2c(S(=O)(=O)c3ccc(Cl)cc3)c(N)n(Nc3cccc(Cl)c3)c2nc1C#N	30.9 nM	
O=C(NCCNCCO)c1ccc2c(c1)oc1cc3ccccc3c(=O)n12	46700 nM	> 50

Tested on: RPMI-8226 leukemia
Assay: NCI anticancer screen, dose series, 48 h

Compound	GI50	TGI
O=C1c2cccc(Oc3ccccc3)c2C(=O)c2cccc(Oc3ccccc3)c21	> 100000 nM	> 100 µM
O=C(OCc1ccc2c(Br)cc(Br)c(O)c2n1)c1cc2ccccc2[nH]1	357 nM	1.94 µM
CC(C)(CO)CNC(=O)c1ccc2[nH]c(O)c(N=Nc3ccc(S(N)(=O)=O)cc3)c2c1	> 25000 nM	> 25 µM
Cc1cc(O)c2c(c1)C(=O)C=CC2=O	3290 nM and 390 nM	17.9 µM and 3.44 µM
CC1(C)N=C(N)N=C(N)N1c1ccc(CCC(=O)Nc2ccc(S(=O)(=O)F)cc2)cc1	1220 nM	> 100 µM
N#CC1(c2ccc(NC(=O)c3cccnc3NCc3ccncc3)cc2)CCCC1	6730 nM	31.4 µM
CCN1C(=S)N(CC)C2C1NC(=S)N2/N=C/C=C/c1ccccc1OC (configuration not stated)	377 nM	7.08 µM
Cn1nccc1Nc1nccc(-c2ccn([C@H](CO)c3ccc(Cl)c(F)c3)c(=O)c2)n1	21600 nM	59.3 µM
N#Cc1nc2c(S(=O)(=O)c3ccc(Cl)cc3)c(N)n(Nc3cccc(Cl)c3)c2nc1C#N	2.51 nM	0.019 µM and 0.0668 µM
O=C(NCCNCCO)c1ccc2c(c1)oc1cc3ccccc3c(=O)n12	33800 nM	> 50 µM

Tested on: MALME-3M melanoma
Assay: NCI anticancer screen, dose series, 48 h

Compound	GI50	TGI
O=C1c2cccc(Oc3ccccc3)c2C(=O)c2cccc(Oc3ccccc3)c21	> 100 µM	> 100 µM
O=C(OCc1ccc2c(Br)cc(Br)c(O)c2n1)c1cc2ccccc2[nH]1	1.38 µM	2.77 µM
CC(C)(CO)CNC(=O)c1ccc2[nH]c(O)c(N=Nc3ccc(S(N)(=O)=O)cc3)c2c1	> 25 µM	> 25 µM
Cc1cc(O)c2c(c1)C(=O)C=CC2=O	10.2 µM and 1.86 µM	23.2 µM and 8.39 µM
CC1(C)N=C(N)N=C(N)N1c1ccc(CCC(=O)Nc2ccc(S(=O)(=O)F)cc2)cc1	10.9 µM	> 100 µM
N#CC1(c2ccc(NC(=O)c3cccnc3NCc3ccncc3)cc2)CCCC1	12.1 µM	50.1 µM
CCN1C(=S)N(CC)C2C1NC(=S)N2/N=C/C=C/c1ccccc1OC (configuration not stated)	0.736 µM	63 µM
Cn1nccc1Nc1nccc(-c2ccn([C@H](CO)c3ccc(Cl)c(F)c3)c(=O)c2)n1	0.0289 µM	0.307 µM
N#Cc1nc2c(S(=O)(=O)c3ccc(Cl)cc3)c(N)n(Nc3cccc(Cl)c3)c2nc1C#N	0.0532 µM	0.33 µM
O=C(NCCNCCO)c1ccc2c(c1)oc1cc3ccccc3c(=O)n12	19.7 µM	> 50 µM

Tested on: SNB-75 CNS
Assay: NCI anticancer screen, dose series, 48 h

Compound	GI50 [µM]	TGI
O=C1c2cccc(Oc3ccccc3)c2C(=O)c2cccc(Oc3ccccc3)c21	9.13	42.7 µM
O=C(OCc1ccc2c(Br)cc(Br)c(O)c2n1)c1cc2ccccc2[nH]1	0.328	1.8 µM
CC(C)(CO)CNC(=O)c1ccc2[nH]c(O)c(N=Nc3ccc(S(N)(=O)=O)cc3)c2c1	> 25	> 25 µM
Cc1cc(O)c2c(c1)C(=O)C=CC2=O		34 µM and 30 µM
CC1(C)N=C(N)N=C(N)N1c1ccc(CCC(=O)Nc2ccc(S(=O)(=O)F)cc2)cc1	2.42	> 100 µM
N#CC1(c2ccc(NC(=O)c3cccnc3NCc3ccncc3)cc2)CCCC1	8.08	56.7 µM
CCN1C(=S)N(CC)C2C1NC(=S)N2/N=C/C=C/c1ccccc1OC (configuration not stated)	0.0935	0.606 µM
Cn1nccc1Nc1nccc(-c2ccn([C@H](CO)c3ccc(Cl)c(F)c3)c(=O)c2)n1	24.9	> 100 µM
N#Cc1nc2c(S(=O)(=O)c3ccc(Cl)cc3)c(N)n(Nc3cccc(Cl)c3)c2nc1C#N	0.0115	0.059 µM
O=C(NCCNCCO)c1ccc2c(c1)oc1cc3ccccc3c(=O)n12	15	44.4 µM

Tested on: NCI/ADR-RES ovarian
Assay: NCI anticancer screen, dose series, 48 h

Compound	GI50 [µM]	TGI
O=C1c2cccc(Oc3ccccc3)c2C(=O)c2cccc(Oc3ccccc3)c21	> 100	> 100 µM
O=C(OCc1ccc2c(Br)cc(Br)c(O)c2n1)c1cc2ccccc2[nH]1	1.63	7.59 µM
CC(C)(CO)CNC(=O)c1ccc2[nH]c(O)c(N=Nc3ccc(S(N)(=O)=O)cc3)c2c1	> 25	> 25 µM
Cc1cc(O)c2c(c1)C(=O)C=CC2=O		37 µM and 47.2 µM
CC1(C)N=C(N)N=C(N)N1c1ccc(CCC(=O)Nc2ccc(S(=O)(=O)F)cc2)cc1	98.3	> 100 µM
N#CC1(c2ccc(NC(=O)c3cccnc3NCc3ccncc3)cc2)CCCC1	12.9	62.5 µM
CCN1C(=S)N(CC)C2C1NC(=S)N2/N=C/C=C/c1ccccc1OC (configuration not stated)	0.237	
Cn1nccc1Nc1nccc(-c2ccn([C@H](CO)c3ccc(Cl)c(F)c3)c(=O)c2)n1	> 100	> 100 µM
N#Cc1nc2c(S(=O)(=O)c3ccc(Cl)cc3)c(N)n(Nc3cccc(Cl)c3)c2nc1C#N	0.0505	> 100 µM
O=C(NCCNCCO)c1ccc2c(c1)oc1cc3ccccc3c(=O)n12	> 50	> 50 µM
